One experiment concerns HeLa cells. The experiment in a line: [3H]Adenosine uptake functional cellular assay. It is filed as cell-based. As to conditions: accumulation of [3H]adenosine into HeLa cells, compound range 10 μM to […], read-out: Adenosine uptake inhibition IC50. As to the method:
Compounds are also screened in an adenosine uptake functional cellular assay using the protocol described below. The adenosine uptake inhibition assay may be used to identify compounds with the potential for a negative cardiovascular side effect.
Adenosine uptake activity was determined by monitoring the accumulation of tritiated adenosine into HeLa cells (ATCC catalog # CCL-2) using a PMT-based radiometric detection instrument. […] These cells were incubated overnight at 37° C. in a humidified atmosphere with 5% (v/v) CO2. After this time the growth medium was removed and replaced with 40 μL assay medium comprising: Hanks balanced salts solution (HBSS; Thermo Fisher Catalog # SH30268.01)+5% (v/v) FBS. […] 40 μL of compound in the assay medium was dispensed into individual wells of the Cytostar-T plates and the plates were incubated for 30 minutes under ambient laboratory conditions. Following this incubation, 20 μL of 500 nM [^3H]adenosine (American Radiolabeled Chemicals Inc. Catalog # ART0287) was added in the assay medium and incubated for a further 60 minutes under ambient laboratory conditions. The amount of radiolabel accumulation was then determined using a Perkin Elmer Topcount NXT microplate reader. In brief, HeLa cells adhere to the bottom of the Cytostar-T plate, uptake of [^3H]adenosine into these cells brings the radiolabel into sufficient proximity to excite the scintillant in the base of the plates. These events are captured by single PMT, time-resolved coincidence counting. IC50 values were determined by 4 parameter robust fit of counts per second values vs. (Log10) compound concentrations.

Experiment [1] concerns the target T1, BTK enzyme (recombinant full-length BTK, hBTK) (Homo sapiens, UniProt Q06187).
T1 construct: recombinant protein from baculovirus-transfected Sf9 cells: full-length BTK, 6HIS-tag cleaved; 6HIS (cleaved yes); made in house; host or cells: baculovirus-transfected Sf9 cells
In words: BTK enzyme activity assay, LANCE TR-FRET. The experiment is classed as biochemical. As to conditions: 50 pM hBTK, 2 μM biotin-A5-peptide, 25 μM ATP; 60 min compound & enzyme incubation; read-out: IC50 BTK activity value. For orientation: TR-FRET usually uses a lanthanide donor and a delayed reading to cut background.

Read-outs that look alike come from different tables or passages of the source.

Experimental findings from patent publication US20140206681A1, “BTK INHIBITORS” (priority 2013, published 2014) are described below.

For orientation: IC50 means the concentration that inhibits the measured activity by half.

T1 sequence (Q06187 whole entry): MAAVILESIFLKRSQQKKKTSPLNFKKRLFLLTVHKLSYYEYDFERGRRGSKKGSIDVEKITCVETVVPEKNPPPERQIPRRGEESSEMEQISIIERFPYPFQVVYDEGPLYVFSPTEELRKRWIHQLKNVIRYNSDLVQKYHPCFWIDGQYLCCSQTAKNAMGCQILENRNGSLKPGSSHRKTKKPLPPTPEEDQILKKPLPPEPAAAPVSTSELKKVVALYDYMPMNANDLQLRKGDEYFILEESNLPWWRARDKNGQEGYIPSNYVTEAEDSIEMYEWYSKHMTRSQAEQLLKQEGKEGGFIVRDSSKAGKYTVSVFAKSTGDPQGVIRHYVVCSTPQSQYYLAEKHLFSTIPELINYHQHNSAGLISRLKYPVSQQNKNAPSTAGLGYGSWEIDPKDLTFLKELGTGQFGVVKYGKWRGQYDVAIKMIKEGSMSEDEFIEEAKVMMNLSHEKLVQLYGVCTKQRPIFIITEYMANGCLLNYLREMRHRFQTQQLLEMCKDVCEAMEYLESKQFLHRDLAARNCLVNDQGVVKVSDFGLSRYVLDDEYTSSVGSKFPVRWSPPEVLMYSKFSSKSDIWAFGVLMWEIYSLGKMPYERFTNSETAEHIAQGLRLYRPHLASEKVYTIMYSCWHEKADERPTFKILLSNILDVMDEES

As for “4-(8-amino-3-((6R,8aS)-3-oxooctahydroindolizin-6-yl)imidazo[1,5-a]pyrazin-1-yl)-3-(2-methoxyethoxy)-N-(4-(trifluoromethyl)pyridin-2-yl)benzamide [Example 199]”, the half-inhibitory concentration (IC50) with HeLa cells was found to be 7090 nM; in experiment [1], 1.9 nM.
Consider `CC1CC(=O)N2C[C@H](c3nc(-c4ccc(C(=O)Nc5cc(C(F)(F)F)ccn5)cc4)c4c(N)nccn34)CC[C@H]12` (stereo in doubt) [Example 63, 4-{8-amino-3-[(1S,6R,8aR)-1-methyl-3-oxooctahydroindolizin-6-yl]imidazo[1,5-a]pyrazin-1-yl}-N-[4-(trifluoromethyl)pyridin-2-yl]benzamide], for which the IC50 stood at 71.7 nM in the experiment on HeLa cells (Homo sapiens, HeLa) and 0.058 nM in experiment [1].
For `CC1CC(=O)N2C[C@H](c3nc(-c4ccc(C(=O)Nc5cc(C(F)(F)F)ccn5)cc4)c4c(N)nccn34)CC[C@@H]12` (stereo in doubt) [Example 65, 4-{8-amino-3-[(1R,6R,8aS)-1-methyl-3-oxooctahydroindolizin-6-yl]imidazo[1,5-a]pyrazin-1-yl}-N-[4-(trifluoromethyl)pyridin-2-yl]benzamide] the same measures were 132 nM and 0.085 nM.
As to `CN1C[C@@H]2CC[C@@H](c3nc(-c4ccc(C(=O)Nc5cc(C(F)(F)F)ccn5)cc4)c4c(N)nccn34)CN2C1=O` [Example 3, 4-(8-amino-3-((6R,8aS)-2-methyl-3-oxooctahydroimidazo[1,5-a]pyridin-6-yl)imidazo[1,5-a]pyrazin-1-yl)-N-(4-(trifluoromethyl)pyridin-2-yl)benzamide], the IC50 with HeLa cells (Homo sapiens, HeLa) came to 792 nM; in experiment [1], 7.2 nM.
Consider `Nc1nccn2c([C@@H]3CC[C@H]4CCC(=O)N4C3)nc(-c3ccc(C(=O)Nc4cc(C(F)(F)F)ccn4)cc3)c12` [Example 4, 4-(8-amino-3-((6R,8aS)-3-oxooctahydroindolizin-6-yl)imidazo[1,5-a]pyrazin-1-yl)-N-(4-(trifluoromethyl)pyridin-2-yl)benzamide], for which the IC50 turned out to be 61.9 nM in the experiment with HeLa cells (Homo sapiens, HeLa) and 0.1 nM in experiment [1].
For `Nc1nccn2c([C@@H]3CC[C@H]4CCC(=O)N4C3)nc(-c3ccc(C(=O)Nc4ccccn4)cc3)c12` [Example 6, 4-(8-amino-3-((6R,8aS)-3-oxooctahydroindolizin-6-yl)imidazo[1,5-a]pyrazin-1-yl)-N-(pyridin-2-yl)benzamide] the same measures were 184 nM and 2 nM.
For `Cc1cnc(NC(=O)c2ccc(-c3nc([C@@H]4CC[C@H]5CCC(=O)N5C4)n4ccnc(N)c34)cc2)s1` [Example 8, 4-(8-amino-3-((6R,8aS)-3-oxooctahydroindolizin-6-yl)imidazo[1,5-a]pyrazin-1-yl)-N-(5-methylthiazol-2-yl)benzamide] the same measures were 355 nM and 2.2 nM.
For `Nc1nccn2c([C@H]3CC[C@@H]4CCC(=O)N4C3)nc(-c3ccc(C(=O)Nc4ccccn4)cc3)c12` [Example 9, 4-(8-amino-3-((6S,8aR)-3-oxooctahydroindolizin-6-yl)imidazo[1,5-a]pyrazin-1-yl)-N-(pyridin-2-yl)benzamide] the same measures were 287 nM and 194 nM.
In the case of `Nc1nccn2c([C@H]3CC[C@H]4CCC(=O)N4C3)nc(-c3ccc(C(=O)Nc4cc(C(F)(F)F)ccn4)cc3)c12` [Example 10, 4-(8-amino-3-((6S,8aS)-3-oxooctahydroindolizin-6-yl)imidazo[1,5-a]pyrazin-1-yl)-N-(4-(trifluoromethyl)pyridin-2-yl)benzamide], the IC50 with HeLa cells (Homo sapiens, HeLa) is 1340 nM; in experiment [1], 14.7 nM.
Turning to `CN1CC[C@@H]2CC[C@@H](c3nc(-c4ccc(C(=O)Nc5cc(C(F)(F)F)ccn5)cc4)c4c(N)nccn34)CN2C1=O` [Example 83, 4-(8-amino-3-((4aS,7R)-2-methyl-1-oxooctahydro-1H-pyrido[1,2-c]pyrimidin-7-yl)imidazo[1,5-a]pyrazin-1-yl)-N-(4-(trifluoromethyl)pyridin-2-yl)benzamide], in the experiment with HeLa cells (Homo sapiens, HeLa), the concentration for half-maximal inhibition (IC50) worked out at 124 nM.
On the same count and under the same terms, the result for `CN1CC[C@H]2CC[C@H](c3nc(-c4ccc(C(=O)Nc5cc(C(F)(F)F)ccn5)cc4)c4c(N)nccn34)CN2C1=O` [Example 84, 4-(8-amino-3-((4aR,7S)-2-methyl-1-oxooctahydro-1H-pyrido[1,2-c]pyrimidin-7-yl)imidazo[1,5-a]pyrazin-1-yl)-N-(4-(trifluoromethyl)pyridin-2-yl)benzamide] reads 155 nM; that for `COc1cc(C(=O)Nc2cc(C(F)(F)F)ccn2)ccc1-c1nc([C@@H]2CC[C@H]3CCC(=O)N3C2)n2ccnc(N)c12` [Example 88, 4-(8-amino-3-((6R,8aS)-3-oxooctahydroindolizin-6-yl)imidazo[1,5-a]pyrazin-1-yl)-3-methoxy-N-(4-(trifluoromethyl)pyridin-2-yl)benzamide], 699 nM.
On to `Nc1nccn2c([C@@H]3CC[C@H]4CCC(=O)N4C3)nc(-c3ccc(C(=O)Nc4cc(C(F)(F)F)on4)cc3)c12` [Example 173, 4-{8-amino-3-[(6R,8aS)-3-oxooctahydroindolizin-6-yl]imidazo[1,5-a]pyrazin-1-yl}-N-[5-(trifluoromethyl)isoxazol-3-yl]benzamide], for which, in experiment [1], the IC50 worked out at 245 nM.
The same measure, in the same setting: the result for `Nc1nccn2c([C@@H]3CC[C@H]4CCC(=O)N4C3)nc(-c3ccc(C(=O)Nc4cc(C(F)(F)F)no4)cc3)c12` [Example 174, 4-{8-amino-3-[(6R,8aS)-3-oxooctahydroindolizin-6-yl]imidazo[1,5-a]pyrazin-1-yl}-N-[3-(trifluoromethyl)isoxazol-5-yl]benzamide] reads 241 nM; that for `Cn1nc(NC(=O)c2ccc(-c3nc([C@@H]4CC[C@H]5CCC(=O)N5C4)n4ccnc(N)c34)cc2)cc1C1CC1` [Example 181, 4-{8-amino-3-[(6R,8aS)-3-oxooctahydroindolizin-6-yl]imidazo[1,5-a]pyrazin-1-yl}-N-(5-cyclopropyl-1-methyl-1H-pyrazol-3-yl)benzamide], 0.93 nM; that for `CCOC(=O)c1oc(NC(=O)c2ccc(-c3nc([C@@H]4CC[C@H]5CCC(=O)N5C4)n4ccnc(N)c34)cc2)nc1C(F)(F)F` [Example 184, ethyl 2-{[(4-{8-amino-3-[(6R,8aS)-3-oxooctahydroindolizin-6-yl]imidazol[1,5-a]pyrazin-1-yl}phenyl)carbonyl]amino}-4-(trifluoromethyl)-1,3-oxazole-5-carboxylate], 155 nM.
On the same count and under the same terms, the result for `Cc1cc(C(=O)Nc2cc(C(F)(F)F)n(C)n2)ccc1-c1nc([C@@H]2CC[C@H]3CCC(=O)N3C2)n2ccnc(N)c12` [Example 186, 4-{8-amino-3-[(6R,8aS)-3-oxooctahydroindolizin-6-yl]imidazo[1,5-a]pyrazin-1-yl}-3-methyl-N-[1-methyl-5-(trifluoromethyl)-1H-pyrazol-3-yl]benzamide] reads 6.9 nM.
Same read-out and setting: the result for `CCOc1cc(C(=O)Nc2cc(C(F)(F)F)ccn2)ccc1-c1nc([C@@H]2CC[C@@H]3N(C2)C(=O)CC3(C)C)n2ccnc(N)c12` [Example 222, 4-(8-amino-3-((6R,8aS)-1,1-dimethyl-3-oxooctahydroindolizin-6-yl)imidazo[1,5-a]pyrazin-1-yl)-3-ethoxy-N-(4-(trifluoromethyl)pyridin-2-yl)benzamide] reads 0.2 nM.
